The nature of assay [1]: Relative inhibition of PDE6 and PDE5.
The target of a further assay is Phosphodiesterase 6. Put plainly: Inhibition of phosphodiesterase 6 from bovine retina. The class given is protein assay, Bos taurus.
In a further assay the target is Phosphodiesterase 1 (Bos taurus, UniProt Q01061+P14100). Put plainly: Inhibition of phosphodiesterase 1 from bovine heart. The class given is protein assay.
A short description of assay [2]: Relative inhibition of PDE1 and PDE5.
In assay [3] the test system is Phosphodiesterase 3 and 5 (Oryctolagus cuniculus). Put plainly: Relative inhibition of PDE3 and PDE5.
The target in assay [4] is Phosphodiesterase 3 (Oryctolagus cuniculus). The assay can be described thus: Inhibition of phosphodiesterase 3 from rabbit platelets.

A value given as a limit tells only on which side of the number the result lay.

As for `CCCOc1ccc(S(=O)(=O)N2CCC(CP(=O)(O)OCC)CC2)cc1-c1nc2c(CCC)nn(C)c2c(=O)[nH]1`, the figures for the IC50 ratio in assay [1], in assay [2] and in assay [3] were 15, 918 and more than 15000, respectively. In addition, the IC50 against Phosphodiesterase 6 was 2.58 nM; against Phosphodiesterase 1, 156 nM; in assay [4], 2600 nM.

Values taken from ChEMBL document CHEMBL1147542 (Bioorg Med Chem Lett, 2004).
